How the values were obtained:
[1] = target: T1, Human neuropeptide Y (NPY-Y1) (Homo sapiens, UniProt P25929); test: Radioligand binding, human neuropeptide Y NPY-Y1 membranes, FlashPlate, [125I]-PYY; conditions: compound at 10 μM, [125I]-PYY
T1 construct: purchased Perkin Elmer Biosignal
T1 sequence (P25929 1-384): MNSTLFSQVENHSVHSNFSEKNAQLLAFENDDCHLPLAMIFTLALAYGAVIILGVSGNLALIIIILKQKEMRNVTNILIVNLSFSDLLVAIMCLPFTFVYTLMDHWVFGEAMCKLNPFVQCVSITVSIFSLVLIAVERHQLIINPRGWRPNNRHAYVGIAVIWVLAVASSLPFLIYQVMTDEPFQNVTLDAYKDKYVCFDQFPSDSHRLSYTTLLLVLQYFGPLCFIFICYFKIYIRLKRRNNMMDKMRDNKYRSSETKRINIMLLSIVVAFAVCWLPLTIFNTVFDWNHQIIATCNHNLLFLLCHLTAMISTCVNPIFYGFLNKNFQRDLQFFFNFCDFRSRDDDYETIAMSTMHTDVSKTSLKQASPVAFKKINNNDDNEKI
Method in brief: (§1)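 Cloned human receptor membranes were coated onto FlashPlate wells and incubated with radioligand and compound (added from a 0.5 mM DMSO daughter plate) for 1 hour at room temperature in the dark. Scintillation counting gave percent inhibition, with DMSO defining total and reference ligand defining non-specific binding.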

Human δ-opioid (DOP) = target: T2, Human δ-opioid (DOP) (Homo sapiens, UniProt P41143); test: Radioligand binding, human δ-opioid (DOP) membranes, FlashPlate, [3H]-Bremazocine; conditions: compound at 10 μM, [3H]-Bremazocine
T2 construct: purchased Perkin Elmer Biosignal
T2 sequence (P41143 whole entry): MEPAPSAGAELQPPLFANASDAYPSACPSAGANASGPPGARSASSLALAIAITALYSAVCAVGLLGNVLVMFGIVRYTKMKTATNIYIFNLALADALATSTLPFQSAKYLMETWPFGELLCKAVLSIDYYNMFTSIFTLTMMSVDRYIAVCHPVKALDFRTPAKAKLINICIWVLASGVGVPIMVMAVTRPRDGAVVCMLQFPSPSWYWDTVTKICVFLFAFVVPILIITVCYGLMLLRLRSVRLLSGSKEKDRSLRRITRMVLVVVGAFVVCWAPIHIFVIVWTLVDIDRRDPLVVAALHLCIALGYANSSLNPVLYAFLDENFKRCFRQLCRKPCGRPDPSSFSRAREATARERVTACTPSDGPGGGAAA
Method in brief: as §1

Mouse urotensin (mUR2) = target: T3, Mouse urotensin (mUR2) (Mus musculus, UniProt Q8VIH9); test: Radioligand binding, mouse urotensin mUR2 membranes, FlashPlate, [125I]-Urotensin II; conditions: compound at 10 μM, [125I]-Urotensin II
T3 construct: purchased Perkin Elmer Biosignal
T3 sequence (Q8VIH9 1-385): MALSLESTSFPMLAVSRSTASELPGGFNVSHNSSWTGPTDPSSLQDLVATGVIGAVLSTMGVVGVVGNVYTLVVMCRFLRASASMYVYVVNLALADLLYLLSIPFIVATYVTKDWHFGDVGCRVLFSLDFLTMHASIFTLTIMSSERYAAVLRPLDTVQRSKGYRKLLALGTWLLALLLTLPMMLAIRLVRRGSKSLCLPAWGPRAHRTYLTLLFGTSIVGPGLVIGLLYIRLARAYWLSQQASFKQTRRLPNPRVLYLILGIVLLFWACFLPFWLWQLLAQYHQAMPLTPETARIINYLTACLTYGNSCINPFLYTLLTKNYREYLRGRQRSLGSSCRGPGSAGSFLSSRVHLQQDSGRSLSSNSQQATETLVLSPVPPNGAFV
Method in brief: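 Cloned mouse urotensin (mUR2) receptor membranes from Perkin Elmer Biosignal were immobilized in FlashPlate microplates using a proprietary coating. Each well got 19.5 μl buffer, then 0.5 μl of DMSO, reference ligand, or compound. Adding 5 μl of [125I]-Urotensin II, diluted to 5× final concentration in binding buffer, started binding. Plates were sealed with TopSeal-A and incubated 1 hour at room temperature in the dark. Wells were counted for 30 seconds each on a TopCount after a 60-second delay, and percentage inhibition was calculated.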

Human melanocortin (MC5) = target: T4, Human melanocortin (MC5) (Homo sapiens, UniProt P33032); test: Radioligand binding, human melanocortin MC5 membranes, FlashPlate, [125I]-NDP-αMSH; conditions: compound at 10 μM, [125I]-NDP-αMSH
T4 construct: purchased Perkin Elmer Biosignal
T4 sequence (P33032 whole entry): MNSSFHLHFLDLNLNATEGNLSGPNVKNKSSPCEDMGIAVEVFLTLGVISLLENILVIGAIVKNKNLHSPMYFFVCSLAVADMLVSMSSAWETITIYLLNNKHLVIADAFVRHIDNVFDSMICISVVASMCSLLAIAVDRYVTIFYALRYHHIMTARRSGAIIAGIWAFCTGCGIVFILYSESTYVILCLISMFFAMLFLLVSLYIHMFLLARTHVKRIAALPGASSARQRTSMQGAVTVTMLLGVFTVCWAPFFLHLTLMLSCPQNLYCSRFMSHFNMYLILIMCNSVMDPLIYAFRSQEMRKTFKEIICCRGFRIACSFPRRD
Method in brief: as §1

Human opioid (ORL1) = target: T5, Human opioid (ORL1) (Homo sapiens, UniProt P41146); test: Radioligand binding, human opioid ORL1 membranes, FlashPlate, [125I]-Nociceptin; conditions: compound at 10 μM, [125I]-Nociceptin
T5 construct: purchased Perkin Elmer Biosignal
T5 sequence (P41146 whole entry): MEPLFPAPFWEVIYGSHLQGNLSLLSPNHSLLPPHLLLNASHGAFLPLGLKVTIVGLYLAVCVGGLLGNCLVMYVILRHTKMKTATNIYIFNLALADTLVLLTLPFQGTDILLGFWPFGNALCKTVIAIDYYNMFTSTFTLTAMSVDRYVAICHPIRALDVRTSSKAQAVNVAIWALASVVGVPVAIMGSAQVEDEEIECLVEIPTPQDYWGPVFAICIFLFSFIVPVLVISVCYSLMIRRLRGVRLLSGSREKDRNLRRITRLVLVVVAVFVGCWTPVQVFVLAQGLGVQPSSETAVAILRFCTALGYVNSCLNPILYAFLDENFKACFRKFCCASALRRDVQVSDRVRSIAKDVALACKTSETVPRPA
Method in brief: as §1

[2] = target: T6, Human melanin-concentrating hormone (MCH1) (Homo sapiens, UniProt Q99705); test: Radioligand binding, human melanin-concentrating hormone MCH1 membranes, FlashPlate, [125I]-S36057; conditions: compound at 10 μM; for A6: inhibition of radioligand binding, human melanin-concentrating hormone (MCH1): [125I]-S36057
T6 construct: purchased Perkin Elmer Biosignal
T6 sequence (Q99705 whole entry): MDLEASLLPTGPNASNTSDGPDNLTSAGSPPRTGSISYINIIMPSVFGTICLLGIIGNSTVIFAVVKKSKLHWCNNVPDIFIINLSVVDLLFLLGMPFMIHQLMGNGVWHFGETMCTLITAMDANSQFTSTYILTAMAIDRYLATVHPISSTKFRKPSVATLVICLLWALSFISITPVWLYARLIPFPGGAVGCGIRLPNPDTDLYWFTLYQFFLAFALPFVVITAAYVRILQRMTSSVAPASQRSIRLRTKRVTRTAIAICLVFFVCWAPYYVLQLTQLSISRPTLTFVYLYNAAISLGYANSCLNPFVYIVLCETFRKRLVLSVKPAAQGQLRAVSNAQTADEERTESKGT
Method in brief: as §1

Human μ-opioid (MOP) = target: T7, Human μ-opioid (MOP) (Homo sapiens, UniProt P35372); test: Radioligand binding, human μ-opioid (MOP) membranes, FlashPlate, [3H]-Naloxone; conditions: compound at 10 μM, [3H]-Naloxone
T7 construct: purchased Perkin Elmer Biosignal
T7 sequence (P35372 whole entry): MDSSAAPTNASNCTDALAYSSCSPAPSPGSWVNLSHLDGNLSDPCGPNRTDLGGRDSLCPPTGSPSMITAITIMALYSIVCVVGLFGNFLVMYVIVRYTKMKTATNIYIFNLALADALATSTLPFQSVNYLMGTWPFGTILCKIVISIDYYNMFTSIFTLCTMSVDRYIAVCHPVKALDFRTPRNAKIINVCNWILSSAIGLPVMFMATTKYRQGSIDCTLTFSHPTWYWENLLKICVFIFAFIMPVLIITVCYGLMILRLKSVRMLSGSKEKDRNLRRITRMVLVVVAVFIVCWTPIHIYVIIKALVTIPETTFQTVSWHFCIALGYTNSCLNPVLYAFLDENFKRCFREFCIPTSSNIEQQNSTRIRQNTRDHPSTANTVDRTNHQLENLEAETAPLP
Method in brief: as §1

Human neurokinin (NK1) = target: T8, Human neurokinin (NK1) (Homo sapiens, UniProt P25103); test: Radioligand binding, human neurokinin NK1 membranes, filtration, [125I]-Substance P; conditions: compound at 10 μM, [125I]-Substance P
T8 construct: purchased Perkin Elmer Biosignal
T8 sequence (P25103 whole entry): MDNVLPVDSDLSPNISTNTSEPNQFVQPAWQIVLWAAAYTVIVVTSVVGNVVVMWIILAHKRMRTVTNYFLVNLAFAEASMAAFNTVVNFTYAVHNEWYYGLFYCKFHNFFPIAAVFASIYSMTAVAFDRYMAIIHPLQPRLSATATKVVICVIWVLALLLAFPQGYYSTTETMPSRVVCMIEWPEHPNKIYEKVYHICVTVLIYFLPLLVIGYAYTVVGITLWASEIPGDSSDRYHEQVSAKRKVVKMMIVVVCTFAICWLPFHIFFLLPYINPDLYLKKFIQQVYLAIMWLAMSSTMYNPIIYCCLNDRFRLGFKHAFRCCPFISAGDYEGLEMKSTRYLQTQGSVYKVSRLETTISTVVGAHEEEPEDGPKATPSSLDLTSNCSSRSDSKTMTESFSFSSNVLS
Method in brief: (§2)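 Percent inhibition of radioligand binding measured on recombinant human membranes: NK1 with [125I]-Substance P, KOP with [3H]-Diprenorphine. Incubation 1 h at room temperature, then harvest onto 0.3% PEI-soaked filters, cold Tris-HCl pH 7.4 washes and scintillation counting; non-specific binding from reference ligand wells.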

Human κ-Opioid (KOP) = target: T9, Human κ-Opioid (KOP) (Homo sapiens, UniProt P41145); test: Radioligand binding, human κ-opioid (KOP) membranes, filtration, [3H]-Diprenorphine; conditions: compound at 10 μM, [3H]-Diprenorphine
T9 construct: purchased Perkin Elmer Biosignal
T9 sequence (P41145 whole entry): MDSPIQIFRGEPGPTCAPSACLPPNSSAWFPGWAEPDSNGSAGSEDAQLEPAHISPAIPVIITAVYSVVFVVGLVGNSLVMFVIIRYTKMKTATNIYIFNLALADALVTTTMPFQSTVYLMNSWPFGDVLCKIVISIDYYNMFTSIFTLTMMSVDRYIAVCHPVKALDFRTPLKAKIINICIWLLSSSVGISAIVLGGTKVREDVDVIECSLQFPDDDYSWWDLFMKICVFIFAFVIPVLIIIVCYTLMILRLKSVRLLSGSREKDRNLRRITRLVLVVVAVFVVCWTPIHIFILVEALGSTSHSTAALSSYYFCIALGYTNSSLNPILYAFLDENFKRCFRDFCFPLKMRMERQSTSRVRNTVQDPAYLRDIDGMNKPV
Method in brief: as §2

Human Melanocortin (MC3) = target: T10, Human Melanocortin (MC3) (Homo sapiens, UniProt P41968); test: Radioligand binding, human melanocortin MC3 membranes, FlashPlate, [125I]-NDP-αMSH; conditions: compound at 10 μM, [125I]-NDP-αMSH
T10 construct: purchased Perkin Elmer Biosignal
T10 sequence (P41968 whole entry): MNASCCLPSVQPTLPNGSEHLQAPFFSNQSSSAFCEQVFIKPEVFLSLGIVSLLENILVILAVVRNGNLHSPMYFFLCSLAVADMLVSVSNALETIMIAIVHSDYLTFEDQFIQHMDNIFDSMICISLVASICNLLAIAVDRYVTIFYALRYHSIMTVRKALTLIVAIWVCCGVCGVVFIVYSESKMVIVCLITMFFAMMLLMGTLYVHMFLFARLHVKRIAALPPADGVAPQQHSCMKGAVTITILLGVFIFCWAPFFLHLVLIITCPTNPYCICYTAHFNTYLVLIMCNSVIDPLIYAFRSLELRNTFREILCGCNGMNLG
Method in brief: as §1

Human Melanocortin (MC4) = target: T11, Human Melanocortin (MC4) (Homo sapiens, UniProt P32245); test: Radioligand binding, human melanocortin MC4 membranes, FlashPlate, [125I]-NDP-αMSH; conditions: compound at 10 μM, [125I]-NDP-αMSH
T11 construct: purchased Perkin Elmer Biosignal
T11 sequence (P32245 whole entry): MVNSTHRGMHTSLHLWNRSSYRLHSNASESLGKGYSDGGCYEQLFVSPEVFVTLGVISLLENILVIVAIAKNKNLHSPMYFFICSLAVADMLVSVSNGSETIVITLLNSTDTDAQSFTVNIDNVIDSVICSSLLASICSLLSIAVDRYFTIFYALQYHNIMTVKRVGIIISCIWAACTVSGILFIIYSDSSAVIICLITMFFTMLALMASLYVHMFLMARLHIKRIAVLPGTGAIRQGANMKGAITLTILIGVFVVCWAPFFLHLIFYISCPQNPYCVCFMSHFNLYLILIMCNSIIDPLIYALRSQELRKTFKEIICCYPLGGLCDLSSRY
Method in brief: as §1

[3] = [125I]-S36057, human MCH1 membranes

Compound	A9: inhibition of radioligand binding, human neuropeptide Y (NPY-Y1) [1]	A1: inhibition of radioligand binding, human δ-opioid (DOP) (Human δ-opioid (DOP))	A11: inhibition of radioligand binding, mouse urotensin (mUR2) (Mouse urotensin (mUR2))	A5: inhibition of radioligand binding, human melanocortin (MC5) (Human melanocortin (MC5))	A10: inhibition of radioligand binding, human opioid (ORL1) (Human opioid (ORL1))	A6: inhibition of radioligand binding, human melanin-concentrating hormone (MCH1) [2]	A7: inhibition of radioligand binding, human μ-opioid (MOP) (Human μ-opioid (MOP))	A8: inhibition of radioligand binding, human neurokinin (NK1) (Human neurokinin (NK1))	A2: inhibition of radioligand binding, human κ-opioid (KOP) (Human κ-Opioid (KOP))	A3: inhibition of radioligand binding, human melanocortin (MC3) (Human Melanocortin (MC3))	A4: inhibition of radioligand binding, human melanocortin (MC4) (Human Melanocortin (MC4))	A9: inhibition of radioligand binding ([1]; human NPY-Y1 membranes)	A1: inhibition of radioligand binding (Human δ-opioid (DOP); human DOP membranes)	A11: inhibition of radioligand binding (Mouse urotensin (mUR2); mouse mUR2 membranes)	A5: inhibition of radioligand binding (Human melanocortin (MC5); human MC5 membranes)	A10: inhibition of radioligand binding (Human opioid (ORL1); human ORL1 membranes)	A6: inhibition of radioligand binding [2, 3]	A7: inhibition of radioligand binding (Human μ-opioid (MOP); human MOP membranes)	A8: inhibition of radioligand binding (Human neurokinin (NK1); human NK1 membranes)	A2: inhibition of radioligand binding (Human κ-Opioid (KOP); human KOP membranes)	further results
N=C(N)NCCC(=O)N[C@H]1C(OCc2ccc(Cl)cc2)O[C@H](COCc2ccc(Cl)cc2)[C@@H](O)[C@@H]1OCc1ccc2ccccc2c1 (stereo partly shown) [compound 532]	− (“−” indicates less than 50% inhibition at 10 μM)	− (“−” indicates less than 50% inhibition at 10 μM)	− (“−” indicates less than 50% inhibition at 10 μM)	+ (“+” indicates greater than 50% inhibition at 10 μM)	+ (“+” indicates greater than 50% inhibition at 10 μM)	+ (“+” indicates greater than 50% inhibition at 10 μM)	+ (“+” indicates greater than 50% inhibition at 10 μM)	+ (“+” indicates greater than 50% inhibition at 10 μM)	+ (“+” indicates greater than 50% inhibition at 10 μM)	+ (“+” indicates greater than 50% inhibition at 10 μM)	+ (“+” indicates greater than 50% inhibition at 10 μM)	–	–	–	–	–	–	–	–	–	–
N=C(N)NCCC(=O)NC1C(OCc2ccc(Cl)cc2)OC(COCc2ccc3ccccc3c2)C(O)C1OCc1ccc(-c2ccccc2)cc1 (stereo not shown) [compound 432]	–	–	–	–	–	–	–	–	–	–	–	− (“−” indicates less than 50% inhibition at 10 μM)	− (“−” indicates less than 50% inhibition at 10 μM)	− (“−” indicates less than 50% inhibition at 10 μM)	+ (“+” indicates greater than 50% inhibition at 10 μM)	− (“−” indicates less than 50% inhibition at 10 μM)	+ (“+” indicates greater than 50% inhibition at 10 μM)	− (“−” indicates less than 50% inhibition at 10 μM)	+ (“+” indicates greater than 50% inhibition at 10 μM)	− (“−” indicates less than 50% inhibition at 10 μM)	A3: inhibition of radioligand binding (Human Melanocortin (MC3); human MC3 membranes): + (“+” indicates greater than 50% inhibition at 10 μM); A4: inhibition of radioligand binding (Human Melanocortin (MC4); human MC4 membranes): + (“+” indicates greater than 50% inhibition at 10 μM)
N=C(N)NCCC(=O)N[C@H]1C(OCc2ccc(Cl)cc2)O[C@H](COCc2ccc3ccccc3c2)[C@@H](O)[C@@H]1OCc1ccc(-c2ccccc2)cc1 (stereo partly shown) [compound 533]	− (“−” indicates less than 50% inhibition at 10 μM)	− (“−” indicates less than 50% inhibition at 10 μM)	− (“−” indicates less than 50% inhibition at 10 μM)	+ (“+” indicates greater than 50% inhibition at 10 μM)	− (“−” indicates less than 50% inhibition at 10 μM)	+ (“+” indicates greater than 50% inhibition at 10 μM)	− (“−” indicates less than 50% inhibition at 10 μM)	+ (“+” indicates greater than 50% inhibition at 10 μM)	− (“−” indicates less than 50% inhibition at 10 μM)	+ (“+” indicates greater than 50% inhibition at 10 μM)	+ (“+” indicates greater than 50% inhibition at 10 μM)	–	–	–	–	–	–	–	–	–	–
NCCC(=O)N[C@H]1C(OCc2ccc3ccccc3c2)O[C@H](COCc2ccccc2)[C@@H](O)[C@@H]1OCc1ccccc1 (stereo partly shown) [compound 450]	–	–	–	–	–	–	–	–	–	–	–	− (“−” indicates less than 50% inhibition at 10 μM)	− (“−” indicates less than 50% inhibition at 10 μM)	− (“−” indicates less than 50% inhibition at 10 μM)	− (“−” indicates less than 50% inhibition at 10 μM)	− (“−” indicates less than 50% inhibition at 10 μM)	− (“−” indicates less than 50% inhibition at 10 μM)	− (“−” indicates less than 50% inhibition at 10 μM)	+ (“+” indicates greater than 50% inhibition at 10 μM)	− (“−” indicates less than 50% inhibition at 10 μM)	A3: inhibition of radioligand binding (Human Melanocortin (MC3); human MC3 membranes): − (“−” indicates less than 50% inhibition at 10 μM); A4: inhibition of radioligand binding (Human Melanocortin (MC4); human MC4 membranes): − (“−” indicates less than 50% inhibition at 10 μM)
COCC1OC(OCc2ccc(Cl)cc2)C(NC(=O)CCNC(=N)N)C(OCc2ccccc2)C1O (stereo not shown) [compound 196]	–	–	–	–	–	–	–	–	–	–	–	–	–	–	–	–	–	–	–	–	A9: inhibition of radioligand binding ([1]; FlashPlate): − (“−” indicates less than 50% inhibition at 10 μM); A1: inhibition of radioligand binding (Human δ-opioid (DOP); FlashPlate): + (“+” indicates greater than 50% inhibition at 10 μM); A11: inhibition of radioligand binding (Mouse urotensin (mUR2); FlashPlate): − (“−” indicates less than 50% inhibition at 10 μM); A5: inhibition of radioligand binding (Human melanocortin (MC5); FlashPlate): − (“−” indicates less than 50% inhibition at 10 μM); A10: inhibition of radioligand binding (Human opioid (ORL1); FlashPlate): − (“−” indicates less than 50% inhibition at 10 μM); A6: inhibition of radioligand binding ([2]; [125I]-S36057, FlashPlate): − (“−” indicates less than 50% inhibition at 10 μM); A7: inhibition of radioligand binding (Human μ-opioid (MOP); FlashPlate): − (“−” indicates less than 50% inhibition at 10 μM); A8: inhibition of radioligand binding (Human neurokinin (NK1); filtration): + (“+” indicates greater than 50% inhibition at 10 μM); A2: inhibition of radioligand binding (Human κ-Opioid (KOP); filtration): − (“−” indicates less than 50% inhibition at 10 μM); A3: inhibition of radioligand binding (Human Melanocortin (MC3); FlashPlate): − (“−” indicates less than 50% inhibition at 10 μM); A4: inhibition of radioligand binding (Human Melanocortin (MC4); FlashPlate): − (“−” indicates less than 50% inhibition at 10 μM)

Source: patent publication US20080009418A1, “Selective Inhibitors” (Alchemia LTD., priority 2004, published 2008)
